Key:
GRd = conditions: rat renal proximal tubule cells treated with DCVC; cited from earlier work
MDH = conditions: rat liver mitochondria in the presence of DCVC; cited from earlier work
[1] = Half-life in the presence of GSH; format: physicochemical; conditions: 0.31 mM compound, 1.02 mM GSH (3:10 molar ratio), phosphate buffer pH 7.4, 37°C
[2] = molecular target: T1, porcine heart mitochondrial malate dehydrogenase (MDH) (Sus scrofa, UniProt P00346); assay: Covalent modification of the model enzyme MDH, anti-biotin immunoblot; format: binding; conditions: 10 µM NB-DCVCS, 3 h, 37°C, 0.5 mg/mL protein
T1 sequence (P00346 25-338): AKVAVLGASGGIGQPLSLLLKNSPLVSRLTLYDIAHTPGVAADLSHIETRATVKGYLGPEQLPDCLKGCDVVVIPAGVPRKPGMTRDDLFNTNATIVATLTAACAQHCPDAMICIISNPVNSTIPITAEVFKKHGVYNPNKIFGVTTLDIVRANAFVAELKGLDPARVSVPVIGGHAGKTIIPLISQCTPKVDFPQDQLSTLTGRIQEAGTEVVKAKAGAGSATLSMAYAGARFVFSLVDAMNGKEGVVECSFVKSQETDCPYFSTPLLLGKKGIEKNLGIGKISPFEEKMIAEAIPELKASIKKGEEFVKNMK

[3] = system: rat kidney cytosol proteins; assay: Binding of NB-DCVCS to kidney cytosolic proteins, anti-biotin immunoblot; set-up: species or system male Sprague Dawley rat; conditions: 6 µg/µL cytosol, 3 h, 37°C
[4] = Stability in phosphate buffer pH 7.4; format: physicochemical
[5] = molecular target: glutathione reductase (GRd) from baker's yeast (Saccharomyces cerevisiae, UniProt P41921); assay: Covalent modification of the model enzyme GRd, anti-biotin immunoblot; format: binding; conditions: 10 µM NB-DCVCS, 3 h, 37°C, 0.5 mg/mL protein
[6] = Stability in isolated rat plasma; format: in vitro ADME, male Sprague-Dawley rat; conditions: 50 µM, 37°C
[7] = Stability under acidic conditions; format: physicochemical; conditions: 0.2 M HCl/KCl buffer pH 2, several hours at 37°C (data not shown)
[8] = Stability in isolated rat whole blood; format: in vitro ADME, male Sprague-Dawley rat; conditions: 50 µM, 37°C

glutathione reductase (GRd) from baker's yeast, sequence (P41921 whole entry): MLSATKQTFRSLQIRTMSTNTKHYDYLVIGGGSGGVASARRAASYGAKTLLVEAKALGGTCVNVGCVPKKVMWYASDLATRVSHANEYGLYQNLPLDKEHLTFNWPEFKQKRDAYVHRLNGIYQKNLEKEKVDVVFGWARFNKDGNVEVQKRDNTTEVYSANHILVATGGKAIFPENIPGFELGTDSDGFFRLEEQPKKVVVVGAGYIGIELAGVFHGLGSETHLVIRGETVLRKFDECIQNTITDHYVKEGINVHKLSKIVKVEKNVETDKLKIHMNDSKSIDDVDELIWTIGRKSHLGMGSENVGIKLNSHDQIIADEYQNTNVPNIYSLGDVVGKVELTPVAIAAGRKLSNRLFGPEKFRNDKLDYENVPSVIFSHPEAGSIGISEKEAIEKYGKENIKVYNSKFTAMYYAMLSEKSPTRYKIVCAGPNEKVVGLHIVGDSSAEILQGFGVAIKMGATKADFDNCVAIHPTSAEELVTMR

## N[C@@H](CSC(Cl)=CCl)C(=O)O [DCVC]
GRd
  GRd activity: inhibited
MDH
  MDH activity: inhibited

## O=C(CCCC[C@@H]1SC[C@@H]2NC(=O)N[C@@H]21)N[C@@H](C[S+]([O-])C(Cl)=CCl)C(=O)O (stereo partly shown) [NB-DCVCS]
[1]
  half-life in the presence of GSH: 39.6 min
[2]
  modification of malate dehydrogenase (immunoblot): extensively modified
[3]; 312.5 nM to 5 µM NB-DCVCS
  immunoblot signal of modified kidney cytosol proteins: concentration-dependent increases in signal and the number of bands
[3]
  NB-DCVCS concentration at which modified proteins were detected: ≥ 625 nM
[4]; phosphate buffer, 37°C
  time stable in phosphate buffer: greater than 120 min
[4]; several hours at 37°C (data not shown)
  stability in phosphate buffer pH 7.4: stable
[5]
  modification of glutathione reductase (immunoblot): extensively modified
[6]
  DCVCS formation from NB-DCVCS (amide bond cleavage) in plasma: No DCVCS formation was observed
  half-life in plasma: 40 min
[6]; after 150 min
  detection in plasma after 150 min: not detectable
[7]
  stability under acidic conditions: stable
[8]
  DCVCS formation from NB-DCVCS (amide bond cleavage) in whole blood: No DCVCS formation was observed
  half-life in whole blood: 68.5 min
[8]; after 150 min
  detection in whole blood after 150 min: not detectable
